# Test results taken from US7425548B2, “Materials and methods for immune system stimulation” (Variety Chidren's Hospital, priority 2004, dated 2008).
# Columns and labels:
# CEM tumor cell line = experiment: MTT cytotoxicity / cell proliferation assay; type: cell-based, human; conditions: 24 hours, concentrations as high as 1000 μg/ml
# Procedure: (§1) FIGS. 4A-4B show cytotoxic analysis of RR1 in normal lymphocytes (a) and tumor cell lines (b). Cells (10^6) were treated with RR1 for 24 hours and cytotoxicity assay performed using MTT cell proliferation kit (Roche Biochemicals). The percentage of surviving cells over control was plotted against RR1 concentrations.
# (§2) Immunostimulating Properties. To measure the immune stimulatory property of RR1, the activation of the different subsets of lymphocytes, syntheses of cytokines such as interleukin (IL)-1β, IL-2, IL-4, IL-6, IL-10, IL-12 p70 and p40, IL-18, interferon (IFN)-α and γ, Tumor Necrosis factor (TNF)-α and β, monocyte chemo-attractant protein (MCP)-1, synthesis of nitric oxide (NO), and the extent of oxidative stress elicited in human lymphocytes was analyzed. Normal lymphocytes were isolated by the histopaque density gradient method from fresh blood drawn from healthy volunteers and utilized for various assays. Human leukemic (CEM) and multidrug resistant (CEM/VLB) cell lines were grown in RPMI medium supplemented with 10% fetal bovine serum and antibiotics in 5% CO2 incubator at 37° C.
# normal lymphocytes [1] = experiment: MTT cytotoxicity / cell proliferation assay; type: cell-based, human; conditions: 24 hours, concentrations as high as 1000 μg/ml
# Procedure: as §1, §2
# CEM/VLB tumor cell line = experiment: MTT cytotoxicity / cell proliferation assay; type: cell-based, human; conditions: 24 hours, concentrations as high as 1000 μg/ml
# Procedure: as §1, §2
# normal lymphocytes [2] = experiment: Nitric oxide (NO) synthesis, Griess assay; type: cell-based, human; conditions: RR1 0-100 μg/ml, 24 hours
# Procedure: Normal lymphocytes from healthy volunteers were treated with RR1 (0-100 μg) at 37° C. for 24 in a CO2 incubator in MEM medium. The supernatant medium was analyzed for the production of NO using assay kit from Active Motif, Carlsbad, Calif. and data analyzed using ANOVA (p=0.109).
# The NO quantification was assayed by Nitric Oxide quantification kit (ACTIVE MOTIF, Carlsbad, Calif.) as per the manufacturer's protocol. Briefly, lymphocytes (10^6/ml) were incubated with varying concentrations of RR1 (0-100 μg/ml) for 24 hours in a nitrate free medium (DULBECO Minimum Essential Medium) at 37° C. The cell culture supernatant (70 μl) was pipetted into the wells of a 96-well plate along with 20 μl reconstituted co-factor and 10 μl nitrate reductase enzyme solution. The plate was shaken at 150 rpm on a plate shaker for 30 minutes at room temperature. Griess reagents A and B (50 μl each) were added into each well, allowed the color to develop for 20 minutes and the absorbance was taken at 540 nm with a reference wavelength of 620 nm in the BIO-RAD plate reader.
# [3] = tested on: human monocyte cell line THP-1; experiment: NO synthesis in monocyte cell line; type: cell-based
# Description: NO levels are also reported to play an important role in the modulation of Th cell differentiation and polarization. Yamasaki et al. (Yamasaki, A. et al. Yonago Acta Medica, 1998, 44:7-15) and Taylor-Robinson et al. (Taylor-Robinson, A. W. et al. Eur. J. Immunol., 1994, 24:980-984) reported an inhibitory role of NO on Th1 cytokines while Bauer et al. (Bauer, H. et al., Immunol, 1997, 90:205-211) reported the same for Th1 as well as Th2 cytokines by NO from activated T cells. […] The enzyme iNOS produced a high output of NO from macrophages upon stimulation. […] The absence of iNOS induction by RR1 supports the conclusion that there is an insignificant increase in the production of NO. […] IFN-α, IFN-γ and TNF-α are known up-regulators of NO synthesis (Shin, J. Y. et al. Immunopharmcol. Immunotoxicol., 2002, 24:469-482; Hirazumi, A. and Furusawa, E. Phytother Res., 1999, 13:380-387).
# [4] = tested on: C3a des Arg (alternative pathway); experiment: Complement activation pathway EIA in normal blood; parameters: species or system human; conditions: RR1 0-100 μg/ml, 24 hours
# Procedure: Normal blood samples from healthy volunteers were incubated with RR1 (0-100 μg) for 24 hours. Human complement C3a des Arg and C4a des Arg correlate EIA Kits (Assay Design Inc., Ann Arbor, Mich.) were used for quantification of classic and alternative pathway of complement activation using an ELISA procedure. ***p<0.001.
# Complement activation pathway. Human complement C3a des Arg and C4a des Arg correlate-EIA Kits (ASSAY DESIGN Inc., Ann Arbor, Mich.) were used to measure the cleaved complement components (C3a des Arg and C4a des Arg) according to the manufacturer's protocols. In brief, 1 ml normal blood, drawn from healthy volunteer was incubated with 0-100 μg/ml of RR1 in a CO2 incubator at 37° C. for 24 hours. The treated blood samples were centrifuged at 2000×g at 4° C. and 225 μl of complement reagent ‘A’ was added to an equal volume of the sample supernatant and vortexed thoroughly. To this mixture, 50 μl of 10 N HCl was added, vortexed again and incubated at room temperature for 1 hour. […] The plate was incubated at 37° C. for 1 hour without shaking, added 50 μl of stop solution and absorbance was taken at 405 nm with a reference wavelength of 570 nm in a BIO-RAD Bench top plate reader.
# normal lymphocytes [5] = experiment: Oxidative stress (GSH/GSSG levels); type: cell-based, human; conditions: data not shown
substance,measurement,setting,value
"(1,4)-α-D-glucan [RR1]",direct cytotoxic or cell proliferating effect (MTT),CEM tumor cell line,no direct cytotoxic or cell proliferating effect
same,direct cytotoxic or cell proliferating effect (MTT),normal lymphocytes [1],no direct cytotoxic or cell proliferating effect
same,direct cytotoxic or cell proliferating effect (MTT),CEM/VLB tumor cell line,no direct cytotoxic or cell proliferating effect
same,increase in NO,normal lymphocytes [2],≤ 21%
same,NO levels with RR1 treatment,[3],did not induce any higher levels of NO
same,levels of C3a des Arg of the alternative pathway,[4],step-wise increase
same,amount of hydrogen peroxide,normal lymphocytes [5],No significant elevation
